The values below come from article PMC1885804, “Preferential inhibition of xanthine oxidase by 2-amino-6-hydroxy-8-mercaptopurine and 2-amino-6-purine thiol” (BMC Biochemistry, 2007).

Read-outs that look alike come from different tables or passages of the source.

For orientation: IC50 means the concentration needed to halve the response being measured. By Ki is commonly meant the dissociation constant of the complex between target and ligand, obtained from inhibition or displacement.

The target in series [1] is T1, bovine XOD (Bos taurus, UniProt P80457).
T1 construct: Bovine milk XOD was procured from Calbiochem (La Jolla, CA, USA); purchased Calbiochem (La Jolla, CA, USA); host or cells: bovine milk
T1 sequence (P80457 whole entry): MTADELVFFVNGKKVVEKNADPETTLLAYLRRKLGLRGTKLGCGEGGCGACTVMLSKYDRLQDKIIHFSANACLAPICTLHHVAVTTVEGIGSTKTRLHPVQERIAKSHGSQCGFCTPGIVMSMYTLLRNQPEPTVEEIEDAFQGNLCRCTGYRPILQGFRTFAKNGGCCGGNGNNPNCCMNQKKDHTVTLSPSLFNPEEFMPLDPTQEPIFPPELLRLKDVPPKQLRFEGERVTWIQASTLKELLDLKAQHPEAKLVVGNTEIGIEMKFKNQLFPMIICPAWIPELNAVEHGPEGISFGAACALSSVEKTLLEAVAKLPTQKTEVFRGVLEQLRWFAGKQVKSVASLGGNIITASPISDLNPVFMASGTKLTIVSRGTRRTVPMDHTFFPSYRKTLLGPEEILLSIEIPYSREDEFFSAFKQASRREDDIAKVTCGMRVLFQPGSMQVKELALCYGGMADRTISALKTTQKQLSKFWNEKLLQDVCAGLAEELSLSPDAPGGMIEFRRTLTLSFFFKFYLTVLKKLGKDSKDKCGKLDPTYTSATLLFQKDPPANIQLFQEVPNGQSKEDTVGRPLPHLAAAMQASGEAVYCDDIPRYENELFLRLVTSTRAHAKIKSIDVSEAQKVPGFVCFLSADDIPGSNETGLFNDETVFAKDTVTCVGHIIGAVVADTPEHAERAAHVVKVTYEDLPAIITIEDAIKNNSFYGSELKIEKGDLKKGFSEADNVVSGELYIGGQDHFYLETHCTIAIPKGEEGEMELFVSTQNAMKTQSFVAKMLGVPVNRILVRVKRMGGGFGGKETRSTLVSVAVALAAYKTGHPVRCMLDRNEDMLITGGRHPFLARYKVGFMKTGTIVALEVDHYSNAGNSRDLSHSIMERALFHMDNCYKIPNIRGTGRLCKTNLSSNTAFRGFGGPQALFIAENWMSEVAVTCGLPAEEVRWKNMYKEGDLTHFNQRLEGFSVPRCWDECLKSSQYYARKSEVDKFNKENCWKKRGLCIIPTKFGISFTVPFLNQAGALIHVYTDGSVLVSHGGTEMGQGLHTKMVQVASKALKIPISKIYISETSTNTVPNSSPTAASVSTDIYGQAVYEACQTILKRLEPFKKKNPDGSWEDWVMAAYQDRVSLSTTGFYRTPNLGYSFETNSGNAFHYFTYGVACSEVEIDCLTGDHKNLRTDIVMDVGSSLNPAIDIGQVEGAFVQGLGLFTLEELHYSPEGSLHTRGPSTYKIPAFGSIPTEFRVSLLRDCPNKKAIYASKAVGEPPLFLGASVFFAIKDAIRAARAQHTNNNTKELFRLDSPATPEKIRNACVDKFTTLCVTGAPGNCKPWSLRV
The experiment in a line: IC50 determination, XOD-catalyzed hydroxylation (uric acid at 293 nm, 6TUA at 350 nm). It is filed as biochemical. As to conditions: for IC50: 2.8 U/ml bovine XOD, ± SEM. The method, then:
One enzyme unit is defined as amount of enzyme required to produce 1 μM uric acid per min per ml reaction mixture from 10 μM of xanthine at 30°C, pH 7.4.
The IC50 values were determined for all the purine and pyrazolopyrimidine-based compounds. […] GRAFIT software procured from Erithacus Software Limited, UK, written by Dr R.J. Leatherbarrow, was employed for calculating the IC50 values.

For series [2], the target named is T1, bovine XOD. Briefly: Steady-state kinetics of XOD (Michaelis Menten and Lineweaver Burk plots). The format is biochemical. On the procedure:
The double reciprocal Lineweaver Burk (LB) plots were drawn to find the mechanism of inhibition of XOD by APT and AHMP (Figure 6, 7, 8, 9).
(§1) Percent residual activity of formation of uric acid and 6TUA was determined by subtracting the percentage inhibition from 100%. […] Km and kcat were determined in the absence of the inhibitors.
For competitive inhibition,
-1/Km app = -1/Km (1+ [I]/Ki)
For non-competitive inhibition,
1/Vmax app = (1+ [I]/Ki)/Vmax
The modified LB equation for the mixed inhibition is
1/v = 1/Vmax app + […]/Vmax app [S]0
where, Km app and Vmax app are defined by equations (4) and (5).
Km app = Km {1+([I0]/Ki)}/{1+ ([I0]/KI)}
Vmax app = Vmax/{1+ ([I0]/KI)}
Km app is the apparent Michaelis constant and Vmax app is the apparent maximum velocity of the reaction of XOD with its substrates. Ki and KI are the inhibition constants of the inhibitors.

Series [3] has as its target T2, XOD (Bos taurus, UniProt P80457). The experiment in a line: In vitro tri-substrate (hypoxanthine, xanthine, 6MP) simulative study. It is filed as biochemical. Details: Bovine milk XOD was procured from Calbiochem (La Jolla, CA, USA); purchased Calbiochem (La Jolla, CA, USA); host or cells: bovine milk. As to conditions: xanthine and 6MP together, data not shown.
The target in series [4] is T1, bovine XOD. The experiment in a line: In vitro bi-substrate (xanthine + 6MP) simulative experiment, percent residual XOD activity. It is filed as biochemical. As to conditions: for Inhibition of 6MP hydroxylation, bi-substrate reaction / Inhibition of xanthine hydroxylation, bi-substrate reaction: observed for 20 min. On the procedure:
Percent residual activity for generation of uric acid and 6TUA was determined in the presence of various concentrations of AHMP, APT and allopurinol (Table 2). […] Absorption spectra of the time dependent XOD-mediated bi-substrate reaction in the presence of APT and AHMP are depicted in Figure 4 and Figure 5, respectively.
as §1

In series [5] the test system is swiss male mice. Briefly: Single dose acute toxicity study, fourteen days observation. The format is in vivo. The method, then: In order to evaluate the toxicity of the preferential inhibitors of XOD, the single dose acute toxicity study was performed for both the preferential inhibitors on swiss male mice following a fourteen days observation period. The body weight of the animal ranged from 25–30 gm. […] Gross necropsy of each animal of all groups was conducted and organ weight was recorded after the termination of the study.

On the set-up of series [6]: method as in doi:10.1016/0006-2952(63)90012-1, doi:10.1016/0002-9343(66)90118-5, PMID 14070377. As to conditions: combination with 6MP; cited from earlier work.
The target in series [7] is T2, XOD.
The target of series [8] is T2, XOD. Details: Bovine milk XOD was procured from Calbiochem (La Jolla, CA, USA); purchased Calbiochem (La Jolla, CA, USA); host or cells: bovine milk. The conditions noted are these: cited from earlier work.
The test system of series [9] is XOD and XDH. Details: method as in doi:10.1016/0006-2952(63)90012-1. The conditions noted are these: at doses that produced significant toxic effects; cited from earlier work.
[10] abbreviates: 10 μM hypoxanthine, 0.2 M sodium phosphate buffer pH 7.4, read-out: IC50, XOD inhibition, substrate hypoxanthine.
Where [11] appears, read: 10 μM xanthine, pH 7.4, read-out: IC50, XOD inhibition, substrate xanthine (xanthine to uric acid).
Setting [12] is: IC50, XOD inhibition, substrate 6MP (6MP to 6TUA), 10 μM 6MP, pH 7.4, 60 min reaction.
Setting [13] is: substrate 6MP, read-out: Ki (competitive inhibition constant; Ki^1 for APT, Ki^2 for AHMP).
Where [14] appears, read: substrate xanthine, read-out: Ki (competitive inhibition constant; Ki^1 for APT, Ki^2 for AHMP).
[15] abbreviates: read-out: % Activity with 6MP as substrate.
[16] abbreviates: read-out: % Activity with xanthine as substrate.
[17] abbreviates: read-out: % Activity with xanthine as substrate (converted).
[18] abbreviates: single dose 2.5, 5, 10 mg/kg intravenously, mice.
Where [19] appears, read: single dose 2.5, 5, 10 mg/kg intravenously, mice, fourteen days.

T2 sequence (P80457 whole entry): as above

Turning to `O=C(Nc1ncnc2nc[nH]c12)c1ccccc1` [6-(N-benzoylamino)purine], in [1], the “Preferential inhibition of the 6MP hydroxylation over xanthine” value is reported as “did not exhibit any preferential inhibition”.
In the case of `Sc1ncnc2nc[nH]c12` [6MP, 6-mercaptopurine], the “Vmax (maximum reaction velocity)” value in series [2] came to 2.85 ± 0.02 µM/min.
In the case of `Nc1nc2[nH]c(S)nc2c(=O)[nH]1` [AHMP, 2-amino-6-hydroxy-8-mercaptopurine], in series [1], the “Difference in the IC50 value in the first and the late phases” value is reported as “no such difference”. For the same compound, the “Whether the compound is an XOD substrate” value in [1] is listed as “none were found to be XOD substrates”. Also, the concentration for half-maximal inhibition (IC50) in [1] (setting [10]) is 5.08 ± 0.04 µM; in [1] (setting [11]) it was 17.7 ± 0.29 µM; in series [1] (setting [12]), 0.54 ± 0.01 µM. For the same compound, the values for the Mechanism of inhibition result in [2] (substrate 6MP) and in [2] (substrate xanthine) were “mixed inhibition mechanism” and “mixed type of inhibition”, respectively. The inhibitory constant (Ki) was 0.98 µM in series [2] (substrate 6MP, read-out: KI^2 (non-competitive inhibition constant) (converted)); 0.96 ± 0.01 µM in series [2] (setting [13]); 6.24 µM in series [2] (substrate xanthine, read-out: KI^2 (non-competitive inhibition constant) (converted)); 5.78 ± 0.48 µM in [2] (setting [14]). In addition, the “Discriminatory inhibition in tri-substrate simulative study” value in series [3] was “discriminatory inhibition of the 6MP to 6TUA conversion and not hypoxanthine to uric acid conversion”. In series [4] (inhibitor 2 μM), the “Inhibition of 6MP hydroxylation, bi-substrate reaction” value is listed as “Almost complete inhibition”. In addition, the “Inhibition of xanthine hydroxylation, bi-substrate reaction” value in series [4] (inhibitor 2 μM) is “little inhibition”. The activity at 0.5 µM in series [4] (setting [15]) is 59 ± 4.01%; in series [4] (setting [16]) it was 90 ± 1.09%. Besides, the values for the activity at 1 µM in [4] (setting [15]) and in [4] (setting [17]) were 47% and 85%, respectively. The activity at 2.5 µM in [4] (setting [15]) was 18%; in series [4] (setting [17]), 64%. In addition, the Gross necropsy entry in series [5] (after termination of the study) is reported as “no changes in vital organs”. Moreover, the “Organ weight as compared with the control groups” value in series [5] (after termination of the study) is listed as “No difference in organ weight”. For the same compound, in series [5] (setting [18]), the “Food intake as compared to allopurinol treated groups” value is “marginally less”. Besides, in series [5] (setting [18]), the “Weekly food intake as compared to vehicle treated groups” value was “decreased”. Besides, the “Changes in the initial and final body weight” value in [5] (setting [19]) was “No significant changes”. Also, in [5] (setting [19]), the General behavioral toxicity result is on record as “No differences in general behavioral toxicity”.
Take `Oc1ncnc2[nH]ncc12` [ALLOPURINOL, allopurinol]: in series [6], the “Potentiation of the antitumor and immunosuppressive properties of 6MP” value is reported as “three to four”. Besides, in series [4] (setting [15]), the activity at 0.5 µM is 83 ± 1.05%, the activity at 1 µM is 48% and the activity at 2.5 µM is 16%. Also, in series [4] (setting [16]), the activity at 0.5 µM was 95 ± 1.09%, the activity at 1 µM is 68% and the activity at 2.5 µM was 30%. Besides, in series [5] (mouse, in vivo), the Gross necropsy entry was “no changes in vital organs” and the “Organ weight as compared with the control groups” value is listed as “No difference in organ weight”. Besides, the Mortality result in series [5] (setting [19]) is reported as “no mortality”. Moreover, the “Substrate-induced enzymatic electron transfer / ROS generation on interaction with XOD” value in series [7] is “led to substrate-induced enzymatic electron transfer via DCPIP”.
On to `Nc1ncnc2[nH]ncc12` [APP, 4-aminopyrazolo 3,4-d pyrimidine], for which, in [1], the “Preferential inhibition of the 6MP hydroxylation over xanthine” value was “did not exhibit any preferential inhibition”. In addition, the IC50 in series [1] (setting [10]) came out at 6.79 ± 0.28 µM; in series [1] (setting [11]) it was 20.8 ± 0.84 µM; in series [1] (read-out: IC50, XOD inhibition, substrate 6MP (6MP to 6TUA), 10 μM 6MP, pH 7.4, 60 min reaction), 12.9 ± 0.69 µM.
As to `Nc1nc2nc[nH]c2c(=S)[nH]1` [APT, 2-amino-6-purinethiol], the “Difference in the IC50 value in the first and the late phases” value in series [1] is listed as “no such difference”. Also, the “Whether the compound is an XOD substrate” value in [1] is reported as “none were found to be XOD substrates”. Further, the IC50 was 7.28 ± 0.17 µM in series [1] (setting [10]), 16.4 ± 0.21 µM in series [1] (setting [11]) and 2.57 ± 0.08 µM in series [1] (setting [12]). The values for the Mechanism of inhibition entry in series [2] (substrate 6MP) and in [2] (substrate xanthine) were “competitive inhibition mechanism” and “Competitive”, respectively. The Ki is 1.3 ± 0.09 µM in [2] (setting [13]) and 6.61 ± 0.28 µM in series [2] (setting [14]). Moreover, the “Discriminatory inhibition in tri-substrate simulative study” value in series [3] is “discriminatory inhibition of the 6MP to 6TUA conversion and not hypoxanthine to uric acid conversion”. In addition, the “Inhibition of 6MP hydroxylation, bi-substrate reaction” value in series [4] (inhibitor 5 μM) is recorded as “Almost complete inhibition”. In addition, the “Inhibition of xanthine hydroxylation, bi-substrate reaction” value in [4] (inhibitor 5 μM) is “little inhibition”. Also, the activity at 0.5 µM was 73 ± 2.5% in [4] (setting [15]) and 96 ± 1% in [4] (setting [16]). The activity at 1 µM was 66% in series [4] (setting [15]) and 90% in [4] (setting [17]). Further, the results for the activity at 2.5 µM in series [4] (setting [15]) and in series [4] (setting [17]) were 25% and 80%, respectively. For the same compound, the Gross necropsy entry in series [5] (mouse, in vivo) is on record as “no changes in vital organs”. Also, in [5] (mouse, in vivo), the “Organ weight as compared with the control groups” value is “No difference in organ weight”. Further, in series [5] (setting [19]), the Mortality entry is given as “no mortality”.
As for `COc1cc(-c2cnn3c(=O)nc[n-]c23)ccc1[S+]([O-])c1ccccc1.[Na+]` (stereo not drawn) [BOF-4272], in [8], the “Type of XOD inhibition” value was “mixed type of inhibition”.
Regarding `O=c1c(O)c(-c2ccccc2)oc2cc(O)cc(O)c12` [Galagin], in [8], the “Type of XOD inhibition” value is listed as “mixed type of inhibition”.
Consider `O=c1c(O)c(-c2ccc(O)cc2O)oc2cc(O)cc(O)c12` [Morin], for which the “Type of XOD inhibition” value in series [8] is on record as “mixed type of inhibition”.
For the compound `O=c1[nH]c(=O)c2nc[nH]c2[nH]1` [Xanthine, xanthine], the “Vmax (maximum reaction velocity)” value in series [2] came out at 114.54 ± 0.24 µM/min.
Regarding `NNC(N)=O` [semicarbazide], the “Inhibition of XOD and XDH in vivo” value in series [9] is recorded as “less than 50%”.
